Patent US20240285634A1, “COMPOUND AND METHOD FOR TREATING CHEMOTHERAPY-ASSOCIATED GASTROINTESTINAL SIDE EFFECTS” (ONQUALITY PHARMACEUTICALS CHINA LTD., priority 2021, published 2024)

Test system: Chemotherapeutic agent-caused diarrhea models of Balb/c mice
Assay: Relieving effect on diarrhea caused by a chemotherapeutic agent (Examples 1-201)
Format: in vivo
Description: Construction of mouse animal models: Chemotherapeutic agent-caused diarrhea models of Balb/c mice were constructed according to the administration mode and frequency of the chemotherapeutic agent as shown in Table 3. After administration for several days, mice developed different extents of diarrhea symptoms (as shown in FIG. 1), which were similar to the conditions in human. Thus, chemotherapeutic agent-caused diarrhea models of mice are very good models to mimic diarrhea in human caused by the chemotherapeutic agent.
Balb/c mice were fed for 1 week, and then divided into groups. The experiment was divided into a control group, a chemotherapeutic agent group, and a group of the compound as shown in Formula I, each of which comprised 10 mice, to perform the administration experiment, for which the administration dosage, mode, time and frequency were shown in Table 3. The control group: being injected or intragastrically administered with the same solvent as that used in the group of the compound as shown in Formula I (the injection mode and time were shown in Table 3), and then being injected or intragastrically administered with the same solvent as that used in the chemotherapeutic agent group (the administration mode was shown in Table 3); the chemotherapeutic agent group: being injected or intragastrically administered with the same solvent as that used in the group of the compound as shown in Formula I (the administration mode and time were shown in Table 3), and then being injected or intragastrically administered with the chemotherapeutic agent (the type, administration mode and dosage were shown in Table 3); the group of the compound as shown in Formula I: being injected or intragastrically administered with the compound as shown in Formula I (the administration mode and time were shown in Table 3), and then being administered with the chemotherapeutic agent (the administration mode and dosage were shown in Table 3).
The scoring of diarrhea can refer to the method of Akinobu Kurita (Cancer Chemother Pharmacol 2000; 46:211-20.), Grade 0: normal feces; Grade 1: mild diarrhea, the stools is slightly wet and soft; Grade 2: moderate diarrhea, loose stools and mild perianal contamination; Grade 3: severe diarrhea, watery stools and accompanied by severe perianal staining (see FIG. 1). It is regarded as effective remission when the diarrhea grading of mice in the group of the compound as shown in Formula I is reduced compared with the average diarrhea grading of mice in the chemotherapeutic agent group.
The diarrhea grading of mice was observed and recorded every day. At the end of the experiment, the number of mice in the group of the compound as shown in Formula I whose diarrhea grading was lower than that of mice in the chemotherapeutic agent group was recorded. Table 3 lists various animal experiment combinations of chemotherapeutic agents and the compound as shown in Formula I, as well as the corresponding experimental results. (Relative remission rate %=the number of mice in the group of the compound as shown in Formula I whose diarrhea has been effectively relieved/the total number of mice in the group of the compound as shown in Formula I*100%. The establishment rate of diarrhea model in the chemotherapeutic agent group was 50%-70%, that is, about 5-7 of 10 mice developed diarrhea during the experiment, and there were cases of individual mice death or not developing diarrhea.)

## CN1CCN(c2ccc(Nc3ncc4cc5n(c4n3)C3(CCCCC3)CNC5=O)nc2)CC1 [Compound I, Trilaciclib]
Ex 131, Fluorouracil 100 + irinotecan 200 mg/kg intraperitoneal single, compound 150 mg/kg oral single 24 h before, cycle 8 days
  Relative remission rate: 30%
Ex 138, Fluorouracil 50 + oxaliplatin 5 + irinotecan 50 mg/kg intraperitoneal single, compound 100 mg/kg intraperitoneal single 0.5 h before, cycle 10 days
  Relative remission rate: 50%
Ex 139, Fluorouracil 50 + oxaliplatin 5 + irinotecan 50 mg/kg intraperitoneal single, compound 100 mg/kg intraperitoneal single 4 h before, cycle 10 days
  Relative remission rate: 40%
Ex 140, Fluorouracil 50 + oxaliplatin 5 + irinotecan 50 mg/kg intraperitoneal single, compound 100 mg/kg intraperitoneal single 8 h before, cycle 10 days
  Relative remission rate: 40%
Ex 141, Fluorouracil 50 + oxaliplatin 5 + irinotecan 50 mg/kg intraperitoneal single, compound 100 mg/kg intraperitoneal single 12 h before, cycle 10 days
  Relative remission rate: 50%
Ex 142, Fluorouracil 50 + oxaliplatin 5 + irinotecan 50 mg/kg intraperitoneal single, compound 100 mg/kg intraperitoneal single 24 h before, cycle 10 days
  Relative remission rate: 50%
Ex 143, Fluorouracil 50 + oxaliplatin 5 + irinotecan 50 mg/kg intraperitoneal single, compound 100 mg/kg intraperitoneal single 48 h before, cycle 10 days
  Relative remission rate: 0%
Ex 144, Fluorouracil 50 + oxaliplatin 5 + irinotecan 50 + tetrahydrofolic acid 90 mg/kg intravenous single, compound 100 mg/kg intravenous single 0.5 h before, cycle 10 days
  Relative remission rate: 50%
Ex 145, Fluorouracil 50 + oxaliplatin 5 + irinotecan 50 + tetrahydrofolic acid 90 mg/kg intravenous single, compound 100 mg/kg intravenous single 1 h before, cycle 10 days
  Relative remission rate: 40%
Ex 146, Fluorouracil 50 + oxaliplatin 5 + irinotecan 50 + tetrahydrofolic acid 90 mg/kg intravenous single, compound 100 mg/kg intravenous single 2 h before, cycle 10 days
  Relative remission rate: 40%
Ex 147, Fluorouracil 50 + oxaliplatin 5 + irinotecan 50 + tetrahydrofolic acid 90 mg/kg intravenous single, compound 100 mg/kg intravenous single 3 h before, cycle 10 days
  Relative remission rate: 30%
Ex 148, Fluorouracil 50 + oxaliplatin 5 + irinotecan 50 + tetrahydrofolic acid 90 mg/kg intravenous single, compound 100 mg/kg intravenous single 4 h before, cycle 10 days
  Relative remission rate: 40%
Ex 149, Fluorouracil 50 + oxaliplatin 5 + irinotecan 50 + tetrahydrofolic acid 90 mg/kg intravenous single, compound 100 mg/kg intravenous single 6 h before, cycle 10 days
  Relative remission rate: 40%
Ex 150, Fluorouracil 50 + oxaliplatin 5 + irinotecan 50 + tetrahydrofolic acid 90 mg/kg intravenous single, compound 100 mg/kg intravenous single 8 h before, cycle 10 days
  Relative remission rate: 30%
Ex 151, Fluorouracil 50 + oxaliplatin 5 + irinotecan 50 + tetrahydrofolic acid 90 mg/kg intravenous single, compound 100 mg/kg intravenous single 10 h before, cycle 10 days
  Relative remission rate: 30%
Ex 152, Fluorouracil 50 + oxaliplatin 5 + irinotecan 50 + tetrahydrofolic acid 90 mg/kg intravenous single, compound 100 mg/kg intravenous single 12 h before, cycle 10 days
  Relative remission rate: 30%
Ex 153, Fluorouracil 50 + oxaliplatin 5 + irinotecan 50 + tetrahydrofolic acid 90 mg/kg intravenous single, compound 100 mg/kg intravenous single 14 h before, cycle 10 days
  Relative remission rate: 50%
Ex 154, Fluorouracil 50 + oxaliplatin 5 + irinotecan 50 + tetrahydrofolic acid 90 mg/kg intravenous single, compound 100 mg/kg intravenous single 16 h before, cycle 10 days
  Relative remission rate: 50%
Ex 155, Fluorouracil 50 + oxaliplatin 5 + irinotecan 50 + tetrahydrofolic acid 90 mg/kg intravenous single, compound 100 mg/kg intravenous single 18 h before, cycle 10 days
  Relative remission rate: 60%
Ex 156, Fluorouracil 50 + oxaliplatin 5 + irinotecan 50 + tetrahydrofolic acid 90 mg/kg intravenous single, compound 100 mg/kg intravenous single 20 h before, cycle 10 days
  Relative remission rate: 60%
Ex 157, Fluorouracil 50 + oxaliplatin 5 + irinotecan 50 + tetrahydrofolic acid 90 mg/kg intravenous single, compound 100 mg/kg intravenous single 24 h before, cycle 10 days
  Relative remission rate: 30%
Ex 158, Fluorouracil 50 + oxaliplatin 5 + irinotecan 50 + tetrahydrofolic acid 90 mg/kg intravenous single, compound 100 mg/kg intravenous single 48 h before, cycle 10 days
  Relative remission rate: 0%
Ex 159, Fluorouracil 50 + oxaliplatin 5 + irinotecan 50 + tetrahydrofolic acid 90 mg/kg intraperitoneal single, compound 100 mg/kg intraperitoneal single 0.5 h before, cycle 7 days
  Relative remission rate: 50%
Ex 160, Fluorouracil 50 + oxaliplatin 5 + irinotecan 50 + tetrahydrofolic acid 90 mg/kg intraperitoneal single, compound 100 mg/kg intraperitoneal single 24 h before, cycle 7 days
  Relative remission rate: 20%
Ex 163, Fluorouracil 50 + oxaliplatin 5 + irinotecan 50 + tetrahydrofolic acid 90 mg/kg intraperitoneal single, compound 150 mg/kg oral single 0.5 h before, cycle 7 days
  Relative remission rate: 40%
Ex 164, Fluorouracil 50 + oxaliplatin 5 + irinotecan 50 + tetrahydrofolic acid 90 mg/kg intraperitoneal single, compound 150 mg/kg oral single 4 h before, cycle 7 days
  Relative remission rate: 60%
Ex 165, Fluorouracil 50 + oxaliplatin 5 + irinotecan 50 + tetrahydrofolic acid 90 mg/kg intraperitoneal single, compound 150 mg/kg oral single 8 h before, cycle 7 days
  Relative remission rate: 80%
